Legend:
[1] = system: SMN2 minigene mRNA (SMN2-A minigene) in HEK293H cells; assay: SMN2 minigene mRNA splicing RT-qPCR assay in cultured cells; format: cell-based, human; conditions: Homo sapiens, HEK293-H; concentration increasing full length SMN2 mRNA 1.5-fold relative to vehicle-treated cells; HEK293H cells with SMN2-A minigene, 24 hours, 7-point concentration data; read-out: EC1.5x for production of full length SMN2 mRNA
Method in brief: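 HEK293H cells stably carrying the SMN2-A minigene were treated for 24 h at 37 °C with a 7-point, 3.16-fold dilution series of compound. Multiplex RT-qPCR measured exon 7-containing minigene FL mRNA against GAPDH, expressed relative to vehicle by modified ΔΔCt; the EC1.5× is the concentration giving a 1.5-fold increase.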

[2] = system: Smn protein in SMA patient fibroblast cells (GM03813); assay: Smn protein assay in cultured cells (SMN HTRF); format: cell-based, human; conditions: SMA patient fibroblast cells, 48 hours; for EC1.5x for Smn protein expression: 7-point concentration curve, SMN HTRF, concentration producing 1.5 times Smn protein vs DMSO vehicle control; for maximum fold (Fold) increase of Smn protein: 7-point concentration data, fold relative to vehicle control
Method in brief: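 SMA patient fibroblasts (5,000 cells/well, DMEM-10% FBS) were treated for 48 h at 37 °C with a 7-point, 3.16-fold dilution series in triplicate. RIPA lysates were probed by HTRF (anti-SMN d2/kryptate, overnight, room temperature), reading 665/620 nm. EC1.5× is the concentration giving 1.5-fold Smn over DMSO vehicle.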

melting point	SMILES	EC (1.5-fold increase) [1]	EC1.5x for Smn protein expression [2]	maximum fold (Fold) increase of Smn protein [2]
220 to 223 °C	Cc1cn2nc(-c3cc(=O)n4cc(N5CC(N6CCCCC6)C5)ccc4n3)cc2c(C)n1 [Compound 765, 2-(4,6-dimethylpyrazolo[1,5-a]pyrazin-2-yl)-7-[3-(piperidin-1-yl)azetidin-1-yl]-4H-pyrido[1,2-a]pyrimidin-4-one]	1 to 3 µM	** (an EC1.5× between >1 μM and ≤3 μM is indicated by two stars (**))	**** (a fold increase between >1.5 and ≤1.65 is indicated by four stars (****))
228 to 230 °C	CCCc1nc(C)cn2nc(-c3cc(=O)n4cc(C5CCNCC5)ccc4n3)cc12 [Compound 766, 2-(6-methyl-4-propylpyrazolo[1,5-a]pyrazin-2-yl)-7-(piperidin-4-yl)-4H-pyrido[1,2-a]pyrimidin-4-one]	< 0.1 µM	**** (an EC1.5x≤0.3 μM is indicated by four stars (****))	***** (a fold increase >1.65 is indicated by five stars (*****))
208 to 210 °C	Cc1cn2nc(-c3cc(=O)n4cc(N5CCC6(CCNC6)C5)ccc4n3)cc2c(C)n1 (stereo not shown) [Compound 767, 7-(2,7-diazaspiro[4.4]non-2-yl)-2-(4,6-dimethylpyrazolo[1,5-a]pyrazin-2-yl)-4H-pyrido[1,2-a]pyrimidin-4-one]	< 0.1 µM	**** (an EC1.5x≤0.3 μM is indicated by four stars (****))	***** (a fold increase >1.65 is indicated by five stars (*****))
216 to 218 °C	Cc1cc(-c2cc(=O)n3cc(N4CCN(C)CC4)ccc3n2)cc2cn(C)nc12 [Compound 768, 2-(2,7-dimethyl-2H-indazol-5-yl)-7-(4-methylpiperazin-1-yl)-4H-pyrido[1,2-a]pyrimidin-4-one]	< 0.1 µM	**** (an EC1.5x≤0.3 μM is indicated by four stars (****))	***** (a fold increase >1.65 is indicated by five stars (*****))
239 to 241 °C	Cc1cn2nc(-c3cc(=O)n4cc(N5CC[C@@H](CN(C)C)C5)ccc4n3)cc2c(C)n1 [Compound 770, 7-{(3S)-3-[(dimethylamino)methyl]pyrrolidin-1-yl}-2-(4,6-dimethylpyrazolo[1,5-a]pyrazin-2-yl)-4H-pyrido[1,2-a]pyrimidin-4-one]	< 0.1 µM	*** (an EC1.5× between >0.3 μM and ≤1 μM is indicated by three stars (***))	**** (a fold increase between >1.5 and ≤1.65 is indicated by four stars (****))
241 to 249 °C	CCc1nc(C)cn2nc(-c3cc(=O)n4cc(C5CCNCC5)cc(C)c4n3)cc12 [Compound 771, 2-(4-ethyl-6-methylpyrazolo[1,5-a]pyrazin-2-yl)-9-methyl-7-(piperidin-4-yl)-4H-pyrido[1,2-a]pyrimidin-4-one]	< 0.1 µM	**** (an EC1.5x≤0.3 μM is indicated by four stars (****))	***** (a fold increase >1.65 is indicated by five stars (*****))
212 to 217 °C	Cc1cc(C2CCNCC2)cn2c(=O)cc(-c3ccc4c(cnn4C)c3)nc12 [Compound 772, 9-methyl-2-(1-methyl-1H-indazol-5-yl)-7-(piperidin-4-yl)-4H-pyrido[1,2-a]pyrimidin-4-one]	< 0.1 µM	**** (an EC1.5x≤0.3 μM is indicated by four stars (****))	***** (a fold increase >1.65 is indicated by five stars (*****))
220 to 222 °C	Cc1cc(-c2cc(=O)n3cc(C4CCNCC4)ccc3n2)cc2cnn(C)c12 [Compound 775, 2-(1,7-dimethyl-1H-indazol-5-yl)-7-(piperidin-4-yl)-4H-pyrido[1,2-a]pyrimidin-4-one]	0.3 to 1 µM	–	*** (a fold increase between >1.35 and ≤1.5 is indicated by three stars (***))
160 to 163 °C	Cc1cc(-c2cc(=O)n3cc(N4CCNCC4)ccc3n2)cc2cnn(C)c12 [Compound 776, 2-(1,7-dimethyl-1H-indazol-5-yl)-7-(piperazin-1-yl)-4H-pyrido[1,2-a]pyrimidin-4-one]	1 to 3 µM	–	** (a fold increase between >1.2 and ≤1.35 is indicated by two stars (**))
248 to 250 °C	Cc1cc(-c2cc(=O)n3cc(N4CCN[C@@H](C)C4)ccc3n2)cc2cnn(C)c12 [Compound 777, 2-(1,7-dimethyl-1H-indazol-5-yl)-7-[(3S)-3-methylpiperazin-1-yl]-4H-pyrido[1,2-a]pyrimidin-4-one]	1 to 3 µM	** (an EC1.5× between >1 μM and ≤3 μM is indicated by two stars (**))	*** (a fold increase between >1.35 and ≤1.5 is indicated by three stars (***))
194 to 196 °C	CCN(CC)C[C@@H]1CCN(c2ccc3nc(-c4cc5c(C)nc(C)cn5n4)cc(=O)n3c2)C1 [Compound 778, 7-{(3S)-3-[(diethylamino)methyl]pyrrolidin-1-yl}-2-(4,6-dimethylpyrazolo[1,5-a]pyrazin-2-yl)-4H-pyrido[1,2-a]pyrimidin-4-one]	< 0.1 µM	*** (an EC1.5× between >0.3 μM and ≤1 μM is indicated by three stars (***))	***** (a fold increase >1.65 is indicated by five stars (*****))
228 to 230 °C	Cc1cn2nc(-c3cc(=O)n4cc(N5CC(CN(C)C)C5)ccc4n3)cc2c(C)n1 [Compound 780, 7-{3-[(dimethylamino)methyl]azetidin-1-yl}-2-(4,6-dimethylpyrazolo[1,5-a]pyrazin-2-yl)-4H-pyrido[1,2-a]pyrimidin-4-one]	< 0.1 µM	**** (an EC1.5x≤0.3 μM is indicated by four stars (****))	***** (a fold increase >1.65 is indicated by five stars (*****))
205 to 207 °C	CCN(CC)CC1CN(c2ccc3nc(-c4cc5c(C)nc(C)cn5n4)cc(=O)n3c2)C1 [Compound 781, 7-{3-[(diethylamino)methyl]azetidin-1-yl}-2-(4,6-dimethylpyrazolo[1,5-a]pyrazin-2-yl)-4H-pyrido[1,2-a]pyrimidin-4-one]	< 0.1 µM	**** (an EC1.5x≤0.3 μM is indicated by four stars (****))	***** (a fold increase >1.65 is indicated by five stars (*****))
220 to 222 °C	CCc1nc(C)cn2cc(-c3cc(=O)n4cc(N5CCN6CCC[C@H]6C5)ccc4n3)cc12 [Compound 782, 2-(1-ethyl-3-methylpyrrolo[1,2-a]pyrazin-7-yl)-7-[(8aS)-hexahydropyrrolo[1,2-a]pyrazin-2(1H)-yl]-4H-pyrido[1,2-a]pyrimidin-4-one]	< 0.1 µM	**** (an EC1.5x≤0.3 μM is indicated by four stars (****))	***** (a fold increase >1.65 is indicated by five stars (*****))
223 to 233 °C	CCc1nc(C)cn2nc(-c3cc(=O)n4cc(N5CCN[C@H](C)C5)cc(C)c4n3)cc12 [Compound 783, 2-(4-ethyl-6-methylpyrazolo[1,5-a]pyrazin-2-yl)-9-methyl-7-[(3R)-3-methylpiperazin-1-yl]-4H-pyrido[1,2-a]pyrimidin-4-one]	< 0.1 µM	**** (an EC1.5x≤0.3 μM is indicated by four stars (****))	***** (a fold increase >1.65 is indicated by five stars (*****))
255 to 263 °C	Cc1cc(C2CCN(C)CC2)cn2c(=O)cc(-c3ccc4c(cnn4C)c3)nc12 [Compound 784, 9-methyl-2-(1-methyl-1H-indazol-5-yl)-7-(1-methylpiperidin-4-yl)-4H-pyrido[1,2-a]pyrimidin-4-one]	0.1 to 0.3 µM	*** (an EC1.5× between >0.3 μM and ≤1 μM is indicated by three stars (***))	**** (a fold increase between >1.5 and ≤1.65 is indicated by four stars (****))
234 to 240 °C	CCc1nc(C)cn2nc(-c3cc(=O)n4cc(N5CCN(C)[C@H](C)C5)cc(C)c4n3)cc12 [Compound 785, 7-[(3R)-3,4-dimethylpiperazin-1-yl]-2-(4-ethyl-6-methylpyrazolo[1,5-a]pyrazin-2-yl)-9-methyl-4H-pyrido[1,2-a]pyrimidin-4-one]	< 0.1 µM	**** (an EC1.5x≤0.3 μM is indicated by four stars (****))	***** (a fold increase >1.65 is indicated by five stars (*****))
236 to 240 °C	CCN1CCC(c2cc(C)c3nc(-c4ccc5c(cnn5C)c4)cc(=O)n3c2)CC1 [Compound 786, 7-(1-ethylpiperidin-4-yl)-9-methyl-2-(1-methyl-1H-indazol-5-yl)-4H-pyrido[1,2-a]pyrimidin-4-one]	0.1 to 0.3 µM	*** (an EC1.5× between >0.3 μM and ≤1 μM is indicated by three stars (***))	**** (a fold increase between >1.5 and ≤1.65 is indicated by four stars (****))
